In ChEMBL document CHEMBL4118272, “The inhibitory effect of kokusaginine on the growth of human breast cancer cells and MDR-resistant cells is mediated by the inhibition of tubulin assembly” (Bioorg Med Chem Lett, 2018):
The source made the active and inactive calls. The rule behind the calls is not given here.

Assays:
Sus scrofa [1] = species on record: Sus scrofa; test: Inhibition of porcine MAP-rich tubulin polymerization at 20 uM measured every 30 secs for 30 mins
Homo sapiens [2] = species on record: Homo sapiens; settings: 10 uM
Description: Inhibition of P-gp in human MCF7/ADR cells assessed as increase in intracellular Rh123 accumulation at 10 uM after 2 hrs by flow cytometry

[3] = Resistance factor, ratio of IC50 for human MCF7/ADR cells to IC50 for human MCF7 cells; format: functional
[4] = Resistance factor, ratio of IC50 for human MDA-MB-231/ADR cells to IC50 for human MDA-MB-231 cells; format: functional
[5] = Growth inhibition of human MDA-MB-231/ADR cells after 48 hrs by MTT assay; format: functional; settings: MDA-MB-231, 48 h
NCI/ADR-RES [6] = test: Growth inhibition of human MCF7/ADR cells after 48 hrs by MTT assay; format: functional, cell-based
MCF7 [7] = test: Growth inhibition of human MCF7 cells after 48 hrs by MTT assay; format: functional, cell-based; settings: MCF7, 48 h
NCI/ADR-RES [8] = test: Downregulation of P-gp mRNA level in human MCF7/ADR cells by qRT-PCR analysis; format: functional, cell-based
Sus scrofa [9] = species on record: Sus scrofa; test: Inhibition of porcine MAP-rich tubulin polymerization measured every 30 secs for 30 mins
NCI/ADR-RES [10] = test: Induction of apoptosis in human MCF7/ADR cells at 12 uM after 24 hrs by Annexin V-FITC/PI double staining based flow cytometry relative to control; format: functional
MCF7 [11] = test: Induction of apoptosis in human MCF7 cells at 12 uM after 24 hrs by Annexin V-FITC/PI double staining based flow cytometry relative to control; format: functional
Tubulin = test: Inhibition of tubulin (unknown origin) polymerization preincubated for 15 mins followed by GTP addition measured for 20 mins by turbidimetric analysis; format: protein-complex assay, Homo sapiens
MDA-MB-231 = test: Growth inhibition of human MDA-MB-231 cells after 48 hrs by MTT assay; format: functional, cell-based; settings: MDA-MB-231, 48 h
NCI/ADR-RES [12] = test: Downregulation of P-gp expression level in human MCF7/ADR cells assessed as P-gp mRNA level up to 24 uM by qRT-PCR analysis (reference value: 17.5); format: functional
NCI/ADR-RES [13] = test: Induction of apoptosis in human MCF7/ADR cells at 24 uM after 24 hrs by Annexin V-FITC/PI double staining based flow cytometry relative to control; format: functional
MCF7 [14] = test: Induction of apoptosis in human MCF7 cells at 6 uM after 24 hrs by Annexin V-FITC/PI double staining based flow cytometry relative to control; format: functional
MCF7 [15] = test: Induction of apoptosis in human MCF7 cells at 24 uM after 24 hrs by Annexin V-FITC/PI double staining based flow cytometry relative to control; format: functional
Tubulin (Homo sapiens) [16] = biological target: T1, Tubulin (Homo sapiens) (UniProt P68371+Q9H4B7+P0DPH7+P68366+Q13509+Q71U36+P04350+Q3ZCM7+P07437+P68363+Q9BQE3+Q6PEY2+Q13885+Q9BVA1+Q9BUF5); test: Displacement of [3H]colchicine from tubulin (unknown origin) at 1 uM after 10 mins relative to control; format: protein-complex assay
Homo sapiens [17] = species on record: Homo sapiens; test: Inhibition of P-gp in human MCF7/ADR cells assessed as increase in intracellular Rh123 accumulation at 24 uM after 2 hrs by flow cytometry; format: cell-based
NCI/ADR-RES [18] = test: Induction of apoptosis in human MCF7/ADR cells at 6 uM after 24 hrs by Annexin V-FITC/PI double staining based flow cytometry relative to control; format: functional
NCI/ADR-RES [19] = test: Downregulation of P-gp protein expression level in human MCF7/ADR cells assessed as P-gp protein level up to 24 uM by Western blot analysis (reference value: 0.67); format: functional
MCF7 [20] = test: Downregulation of P-gp protein expression level in human MCF7 cells assessed as P-gp protein level up to 24 uM by Western blot analysis; format: functional
Tubulin (Homo sapiens) [21] = biological target: T1, Tubulin (Homo sapiens); test: Displacement of [3H]colchicine from tubulin (unknown origin) at 5 uM after 10 mins relative to control; format: protein-complex assay

## COc1cc2c(c(OC)c1OC)-c1ccc(OC)c(=O)cc1[C@@H](NC(C)=O)CC2
Sus scrofa [1]
  inhibition: Active

## COc1ccc(CCN(C)CCCC(C#N)(c2ccc(OC)c(OC)c2)C(C)C)cc1OC (stereo not drawn)
Homo sapiens [2]
  inhibition: Active

## COc1cccc2c1C(=O)c1c(O)c3c(c(O)c1C2=O)C[C@@](O)(C(=O)CO)C[C@@H]3O[C@H]1C[C@H](N)[C@H](O)[C@H](C)O1.Cl [DOXORUBICIN HYDROCHLORIDE]
[3]
  Ratio IC50: 29.5
[4]
  Ratio IC50: 22.72
[5]
  IC50: 49.8 µM
NCI/ADR-RES [6]
  IC50: 50.7 µM
MCF7 [7]
  IC50: 1.72 µM

## COc1cc2nc3occc3c(OC)c2cc1OC [KOKUSAGININE]
[3]
  Ratio IC50: 0.64
NCI/ADR-RES [8]
  Activity: Dose-dependent effect
Sus scrofa [9]
  inhibition: Dose-dependent effect
NCI/ADR-RES [10]
  Activity: 45.35%
MCF7 [11]
  Activity: 21.63%
Tubulin
  IC50: 0.82 µM
[4]
  Ratio IC50: 1.13
MDA-MB-231
  IC50: 9.01 µM
[5]
  IC50: 10.2 µM
NCI/ADR-RES [6]
  IC50: 4.62 µM
NCI/ADR-RES [12]
  Activity: 6.4
NCI/ADR-RES [13]
  Activity: 63.29%
MCF7 [14]
  Activity: 12.08%
MCF7 [15]
  Activity: 39.52%
Tubulin (Homo sapiens) [16]
  inhibition: 92%
MCF7 [7]
  IC50: 7.23 µM
Homo sapiens [17]
  inhibition: Active
NCI/ADR-RES [18]
  Activity: 28.16%
NCI/ADR-RES [19]
  Activity: 0.19
MCF7 [20]
  Activity: 0.02 - 0.09
Tubulin (Homo sapiens) [21]
  inhibition: 98%
